Test results from publication PMC8067314, “Uptake of Vitamins D2, D3, D4, D5, D6, and D7 Solubilized in Mixed Micelles by Human Intestinal Cells, Caco-2, an Enhancing Effect of Lysophosphatidylcholine on the Cellular Uptake, and Estimation of Vitamins D’ Biological Activities” (Nutrients, 2021).

Columns and labels:
[1] = system: rats; design: method as in PMID 9017001; conditions: cited from earlier work
[2] = system: dispersed Caco-2 cells; test: Uptake of vitamin D from mixed micelles by dispersed Caco-2 cells; type: in vitro ADME, human; conditions: dispersed Caco-2 cells, 2 h
Source text: (§1) Since 2001, we have reported that lysophospholipids enhance the uptake of micellar carotenoids in Caco-2 cells. […] In the present study, using the same method, we examined whether the mechanism for the enhancing effect of lysophosphatidylcholine could be adapted to vitamin D, as well. To evaluate the impact of the degree of cell-cell adhesion/cell-matrix adhesion on vitamin D uptake by cells, we prepared in two different ways: i) dispersed Caco-2 cells without cell-cell adhesion/cell-matrix adhesion and ii) Caco-2 cells with insufficient cell-cell adhesion.
(i): The dispersed cells were prepared by trypsin treatment. After collecting the cells in the culture medium, the number of cells was counted and diluted with the medium. The cells were washed two times with FBS-free DMEM and then seeded in culture plate of 24-well for suspension cultures (SC plate; Greiner Bio-One, Frickenhausen, Germany) at a density of 15 × 10^4 cells per well containing the FBS-free DMEM (0.5 mL).
(§2) Subsequent operations are common to the two models of cells. The medium consisting of mixed micellar vitamin D (0.5 mL) was added to adhered cells or dispersed cells in individual wells containing FBS-free DMEM (0.5 mL), resulting in a total medium volume of 1.0 mL/well, and the final start concentrations of mixed micellar components were one-half the initial concentration. The cells were incubated in the same conditions as described above, i.e., in a CO2 incubator at 37 °C for 2 h, and then the cells were washed with 2 mM taurocholate/PBS, followed by two times with PBS. The vitamin D uptake and residual mixed micellar vitamin D were evaluated as the previous subsection, but the filtrate of residual mixed micellar vitamin D was diluted with a 2x-volume of H2O. The cellular protein content was also determined as above.

[3] = system: rats; conditions: cited from earlier work
[4] = system: chicks; conditions: cited from earlier work
[5] = system: rats; conditions: line test, vitamins D provided as a crystal; cited from earlier work
[6] = system: Caco-2 cells with insufficient cell-cell adhesion; test: Uptake of vitamin D2 by adherent Caco-2 cells with insufficient cell-cell adhesion; type: in vitro ADME, human; conditions: 2-h incubation
Source text: as §1
(ii): The cells that had insufficient cell-cell adhesion were prepared by reducing the culture period from 20–22 d for full differentiation to <7 d after the seeding described above.
as §2

Row | Vitamin-D2 uptake from lysoPC mixed micelles relative to that from NoPC mixed micelles [2] | Compound | Activity for increasing the blood concentration of calcium relative to 1,25-di(OH)-vitamin D3 [1] | Intestinal absorption compared with vitamin D3 [3] | Intestinal absorption compared with vitamin D3 or D4 [4] | Anti-rickets activity, comparison of vitamins D [5] | Vitamin D2 uptake, NoPC vs lysoPC mixed micelles ([6]; Caco-2 cells cultured for 3 d) | Vitamin D2 uptake, NoPC vs lysoPC mixed micelles ([6]; Caco-2 cells cultured for 5 d) | Vitamin D2 uptake, NoPC vs lysoPC mixed micelles ([6]; Caco-2 cells cultured for 7 d)
1 |  | C=C1/C(=C\C=C2/CCC[C@]3(C)[C@@H]([C@H](C)CC[C@@H](CC)C(C)C)CC[C@@H]23)C[C@@H](O)C[C@@H]1O [1-OH-vitamin D5] | approximately one-sixth |  |  |  |  |  | 
2 | approximately one-sixth | C=C1CC[C@H](O)C/C1=C/C=C1\CCC[C@]2(C)[C@@H]([C@H](C)/C=C/[C@H](C)C(C)C)CC[C@@H]12 [Vitamin D2] |  | slightly more easily absorbed than vitamin D3 | less absorbed than vitamin D3 | highest activities and were similar | significantly higher by cells cultured for 3 d from NoPC mixed micelles | no difference in the uptake amounts between NoPC mixed micelles and lysoPC mixed micelles | uptake from lysoPC mixed micelles were significantly higher than those from NoPC mixed micelles
